Data reported in patent US4986985A, “Method of treating skin virus infections” (Bar Ilan University, priority 1987, dated 1991).

Tested on: peroxide level in the skin
Assay: TBA test of peroxide level in skin of adult mice after topical application
Assay type: in vivo
Details: 0.1% dissolved in Oil of Olay, similar experiments
Description: Samples of lotions and appropriate controls were applied to mice or rat skin for a fixed period. The application was done once a day. Experiments were terminated by killing the animal, peeling the skin and freezing it in liquid nitrogen. Samples of the frozen skin were homogenized in 0.2M phosphate buffer, pH 6.5. After centrifugation, the supernatant was collected and analyzed for the peroxide value using the TBA (thiobarbituric acid) test as described by Sinnhuber et al, Food Res. 23: 620 (1958). In the experiments which follow, newborn (hairless) rats were used. It is generally considered that the penetration through the skin of newborn rats is better than in adult rats, since at this stage they have not yet developed any fur.
In these experiments adult mice (2 months old) were treated as described in Example 2. The grown mice were shaved before applying the lotions to the skin.
In this experiment the antioxidant was dissolved in Oil of Olay. Mice were sacrificed after 21 days.

SMILES	reduction of the level of peroxides
Cc1c(C)c2c(c(C)c1O)CCC(C)(CCCC(C)CCCC(C)CCCC(C)C)O2 (stereo not drawn) [alpha tocopherol]	no reduction of the level of peroxides was observed
COc1ccc(O)c(C(C)(C)C)c1 [BHA]	no reduction of the level of peroxides was observed
Cc1cc(C(C)(C)C)c(O)c(C(C)(C)C)c1 [BHT]	no reduction of the level of peroxides was observed
